Experimental data reported in PubChem BioAssay (NCI).
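GI50: concentration for 50% inhibition of growth. TGI denotes the concentration required for complete inhibition of growth.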

Assays:
Assay in all cases: NCI tumour cell line growth inhibition, 384-well format; in the data active means GI50 below about 0.43 µM; inactive means the rest
786-0 renal = tested on: 786-0 renal
A549 NSCLC = tested on: A549 NSCLC
ACHN renal = tested on: ACHN renal
BT-549 breast = tested on: BT-549 breast
CAKI-1 renal = tested on: CAKI-1 renal
CCRF-CEM leukemia = tested on: CCRF-CEM leukemia
COLO 205 colon = tested on: COLO 205 colon
DU-145 prostate = tested on: DU-145 prostate
EKVX NSCLC = tested on: EKVX NSCLC
HCC-2998 colon = tested on: HCC-2998 colon
HCT-116 colon = tested on: HCT-116 colon
HCT-15 colon = tested on: HCT-15 colon
HL-60(TB) leukemia = tested on: HL-60(TB) leukemia
HOP-62 NSCLC = tested on: HOP-62 NSCLC
HOP-92 NSCLC = tested on: HOP-92 NSCLC
HS 578T breast = tested on: HS 578T breast
HT29 colon = tested on: HT29 colon
IGROV1 ovarian = tested on: IGROV1 ovarian
K-562 leukemia = tested on: K-562 leukemia
KM12 colon = tested on: KM12 colon
LOX IMVI melanoma = tested on: LOX IMVI melanoma
M14 melanoma = tested on: M14 melanoma
MALME-3M melanoma = tested on: MALME-3M melanoma
MCF7 breast = tested on: MCF7 breast
MDA-MB-231 breast = tested on: MDA-MB-231 breast
MDA-MB-435 melanoma = tested on: MDA-MB-435 melanoma
MDA-MB-468 breast = tested on: MDA-MB-468 breast
MOLT-4 leukemia = tested on: MOLT-4 leukemia
NCI-H23 lung = tested on: NCI-H23 lung
NCI-H322M lung = tested on: NCI-H322M lung
NCI-H460 NSCLC = tested on: NCI-H460 NSCLC
NCI-H522 lung = tested on: NCI-H522 lung
NCI/ADR-RES ovarian = tested on: NCI/ADR-RES ovarian
OVCAR-3 ovarian = tested on: OVCAR-3 ovarian
OVCAR-4 ovarian = tested on: OVCAR-4 ovarian
OVCAR-8 ovarian = tested on: OVCAR-8 ovarian
PC-3 prostate = tested on: PC-3 prostate
RPMI-8226 leukemia = tested on: RPMI-8226 leukemia
RXF 393 renal = tested on: RXF 393 renal
SF-268 CNS = tested on: SF-268 CNS
SF-295 CNS = tested on: SF-295 CNS
SF-539 CNS = tested on: SF-539 CNS
SK-MEL-28 melanoma = tested on: SK-MEL-28 melanoma
SK-MEL-5 melanoma = tested on: SK-MEL-5 melanoma
SK-OV-3 ovarian = tested on: SK-OV-3 ovarian
SN12C renal = tested on: SN12C renal
SNB-19 CNS = tested on: SNB-19 CNS
SNB-75 CNS = tested on: SNB-75 CNS
SR leukemia = tested on: SR leukemia
SW-620 colon = tested on: SW-620 colon
T-47D breast = tested on: T-47D breast
TK-10 renal = tested on: TK-10 renal
U251 glioblastoma = tested on: U251 glioblastoma
UACC-62 melanoma = tested on: UACC-62 melanoma
UO-31 renal = tested on: UO-31 renal

O=C(NCc1ccc(S(=O)(=O)c2cc(F)cc(F)c2)cc1)c1ccc2nccn2c1
0.0257 µM: TGI (LOX IMVI melanoma)
< 0.01 µM: TGI (786-0 renal) | TGI (ACHN renal) | TGI (BT-549 breast) | TGI (CAKI-1 renal) | TGI (CCRF-CEM leukemia) | TGI (COLO 205 colon) | TGI (DU-145 prostate) | TGI (HCC-2998 colon) | TGI (HCT-116 colon) | TGI (HCT-15 colon) | TGI (HL-60(TB) leukemia) | TGI (HOP-62 NSCLC) | TGI (HS 578T breast) | TGI (IGROV1 ovarian) | TGI (K-562 leukemia) | TGI (KM12 colon) | TGI (M14 melanoma) | TGI (MCF7 breast) | TGI (MDA-MB-435 melanoma) | TGI (MDA-MB-468 breast) | TGI (MOLT-4 leukemia) | TGI (NCI-H23 lung) | TGI (NCI-H322M lung) | TGI (NCI-H522 lung) | TGI (NCI/ADR-RES ovarian) | TGI (OVCAR-3 ovarian) | TGI (OVCAR-8 ovarian) | TGI (PC-3 prostate) | TGI (RPMI-8226 leukemia) | TGI (RXF 393 renal) | TGI (SF-268 CNS) | TGI (SF-295 CNS) | TGI (SF-539 CNS) | TGI (SK-MEL-28 melanoma) | TGI (SK-MEL-5 melanoma) | TGI (SK-OV-3 ovarian) | TGI (SN12C renal) | TGI (SNB-19 CNS) | TGI (SNB-75 CNS) | TGI (SR leukemia) | TGI (SW-620 colon) | TGI (T-47D breast) | TGI (TK-10 renal) | TGI (U251 glioblastoma) | TGI (UACC-62 melanoma) | TGI (UO-31 renal)
0.0102 µM: TGI (HT29 colon)
0.0274 µM: TGI (MALME-3M melanoma)
0.0203 µM: TGI (A549 NSCLC)
0.0183 µM: TGI (MDA-MB-231 breast)
active: GI50 ([…]-0 renal) < 0.01 µM | GI50 (A549 NSCLC) < 0.01 µM | GI50 (ACHN renal) < 0.01 µM | GI50 (BT-549 breast) < 0.01 µM | GI50 (CAKI-1 renal) < 0.01 µM | GI50 (CCRF-CEM leukemia) < 0.01 µM | GI50 (COLO 205 colon) < 0.01 µM | GI50 (DU-145 prostate) < 0.01 µM | GI50 (EKVX NSCLC) < 0.01 µM | GI50 (HCC-2998 colon) < 0.01 µM | GI50 (HCT-116 colon) < 0.01 µM | GI50 (HCT-15 colon) < 0.01 µM | GI50 (HL-60(TB) leukemia) < 0.01 µM | GI50 (HOP-62 NSCLC) < 0.01 µM | GI50 (HOP-92 NSCLC) 0.0204 µM | GI50 (HS 578T breast) < 0.01 µM | GI50 (HT29 colon) < 0.01 µM | GI50 (IGROV1 ovarian) < 0.01 µM | GI50 (K-562 leukemia) < 0.01 µM | GI50 (KM12 colon) < 0.01 µM | GI50 (LOX IMVI melanoma) < 0.01 µM | GI50 (M14 melanoma) < 0.01 µM | GI50 (MALME-3M melanoma) < 0.01 µM | GI50 (MCF7 breast) < 0.01 µM | GI50 (MDA-MB-231 breast) < 0.01 µM | GI50 (MDA-MB-435 melanoma) < 0.01 µM | GI50 (MDA-MB-468 breast) < 0.01 µM | GI50 (MOLT-4 leukemia) < 0.01 µM | GI50 (NCI-H23 lung) < 0.01 µM | GI50 (NCI-H322M lung) < 0.01 µM | GI50 (NCI-H460 NSCLC) 0.0116 µM | GI50 (NCI-H522 lung) < 0.01 µM | GI50 (NCI/ADR-RES ovarian) < 0.01 µM | GI50 (OVCAR-3 ovarian) < 0.01 µM | GI50 (OVCAR-4 ovarian) < 0.01 µM | GI50 (OVCAR-8 ovarian) < 0.01 µM | GI50 (PC-3 prostate) < 0.01 µM | GI50 (RPMI-8226 leukemia) < 0.01 µM | GI50 (RXF 393 renal) < 0.01 µM | GI50 (SF-268 CNS) < 0.01 µM | GI50 (SF-295 CNS) < 0.01 µM | GI50 (SF-539 CNS) < 0.01 µM | GI50 (SK-MEL-28 melanoma) < 0.01 µM | GI50 (SK-MEL-5 melanoma) < 0.01 µM | GI50 (SK-OV-3 ovarian) < 0.01 µM | GI50 (SN12C renal) < 0.01 µM | GI50 (SNB-19 CNS) < 0.01 µM | GI50 (SNB-75 CNS) < 0.01 µM | GI50 (SR leukemia) < 0.01 µM | GI50 (SW-620 colon) < 0.01 µM | GI50 (T-47D breast) < 0.01 µM | GI50 (TK-10 renal) < 0.01 µM | GI50 (U251 glioblastoma) < 0.01 µM | GI50 (UACC-62 melanoma) < 0.01 µM | GI50 (UO-31 renal) < 0.01 µM
0.0263 µM: TGI (NCI-H460 NSCLC)
0.0435 µM: TGI (HOP-92 NSCLC)
0.0114 µM: TGI (OVCAR-4 ovarian)
0.0124 µM: TGI (EKVX NSCLC)
